Measurements: patent US20070243222A1, “FUNGICIDAL FORMULATION AND METHOD OF USE” (priority 2006, published 2007)

Legend:
[1] = system: onychomycosis; details: topical nail lacquer once daily, mild to moderate onychomycosis; combined results of two randomized, controlled trials; cited from earlier work
[2] = system: onychomycosis; details: standard oral treatment; survey Arch Dermatol 134(12):1551-1554, 1998; cited from earlier work
[3] = system: Trichophyton rubrum; assay: inhibition of propagation of Trichophyton rubrum; assay type: cell-based; details: acting alone or in combination
Description: An additional iron chelating agent, useful in the present invention, is an iron-chelating agent consisting of ciclopirox in conjunction with a light-blocking agent. Particularly, preferred iron chelating agents useful in the present invention are zinc pyrithione and Chelex-100. Pyrithione is 2-pyridinethiol-1-oxide and is a “bidentate ligand” that has the capacity to complex with metals other than zinc, such as iron. Chelex-100 is a styrene divinylbenzene copolymer containing paired iminodiacetate ions, which act as chelating groups for binding polyvalent metal ions.

Compound: Cc1cc(C2CCCCC2)n(O)c(=O)c1 [ciclopirox]
- complete resolution, share of treated patients [1]: approximately 7%

Compound: CN(C/C=C/C#CC(C)(C)C)Cc1cccc2ccccc12 [terbinafine]
- disease-free nails, share of cases [2]: 35-50%

Compound: zinc pyrithione
- inhibitory effect on the propagation of Trichophyton rubrum [3]: potent inhibitory effect
